Results from ChEMBL document CHEMBL1201862, “PubChem BioAssay data set” (2004).
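Compound exposure: 48 hours, 5 concentrations, 96-well plates. GI50 marks 50% less growth.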 Calls of active or inactive are those of the source. Rule as the data show it: active = GI50 up to about 1.1 µM and inactive = higher.

Legend:
Test in all cases: NCI tumour cell line growth inhibition, 48 h
NCI-H226 = tested on: NCI-H226
ACHN = tested on: ACHN
SF-539 = tested on: SF-539
MDA-MB-435 = tested on: MDA-MB-435
SF-295 = tested on: SF-295
SN12C = tested on: SN12C
NCI-H522 = tested on: NCI-H522
U-251 = tested on: U-251
TK-10 = tested on: TK-10
HOP-62 = tested on: HOP-62
SK-MEL-2 = tested on: SK-MEL-2
MDA-N = tested on: MDA-N
RXF 393 = tested on: RXF 393
SNB-19 = tested on: SNB-19
UACC-62 = tested on: UACC-62
SK-MEL-28 = tested on: SK-MEL-28
NCI-H23 = tested on: NCI-H23
UO-31 = tested on: UO-31
HCC 2998 = tested on: HCC 2998
HT-29 = tested on: HT-29

Compound | GI50 (NCI-H226) | GI50 (ACHN) | GI50 (SF-539) | GI50 (MDA-MB-435) | GI50 (SF-295) | GI50 (SN12C) | GI50 (NCI-H522) | GI50 (U-251) | GI50 (TK-10) | GI50 (HOP-62) | GI50 (SK-MEL-2) | GI50 (MDA-N) | GI50 (RXF 393) | GI50 (SNB-19) | GI50 (UACC-62) | GI50 (SK-MEL-28) | GI50 (NCI-H23) | GI50 (UO-31) | GI50 (HCC 2998) | GI50 (HT-29)
CN(NC(=O)c1ccco1)C1=NCCN1 | > 100 µM (inactive) | > 100 µM (inactive) | > 100 µM (inactive) | > 100 µM (inactive) | > 100 µM (inactive) | > 100 µM (inactive) | > 100 µM (inactive) | > 100 µM (inactive) | > 100 µM (inactive) | > 100 µM (inactive) | > 100 µM (inactive) | > 100 µM (inactive) | > 100 µM (inactive) | > 100 µM (inactive) | > 100 µM (inactive) | > 100 µM (inactive) | > 100 µM (inactive) | > 100 µM (inactive) | > 100 µM (inactive) | > 100 µM (inactive)
CC1=CC(=O)c2ccccc2C1=O [MENADIONE] | 14.3 µM (inactive) | 3.36 µM (inactive) | 3.61 µM (inactive) | 1.84 µM (inactive) | 16.5 µM (inactive) | 12.4 µM (inactive) | 5.06 µM (inactive) | 13.4 µM (inactive) | 19.9 µM (inactive) | 16.1 µM (inactive) | 8.3 µM (inactive) | 0.91 µM (active) | 13.4 µM (inactive) | 17.9 µM (inactive) | 4.67 µM (inactive) | 4.94 µM (inactive) | 7.06 µM (inactive) | 2.65 µM (inactive) | 17 µM (inactive) | 17.9 µM (inactive)
O=C1C(Cl)=C(N2CCN(C3=C(Cl)C(=O)c4ccccc4C3=O)CC2)C(=O)c2ccccc21 | 4.25 µM (inactive) | 1.64 µM (inactive) | 1.73 µM (inactive) | 1.86 µM (inactive) | 7.62 µM (inactive) | 1.69 µM (inactive) | 0.652 µM (active) | 3.13 µM (inactive) | 1.96 µM (inactive) | 12.4 µM (inactive) | 1.74 µM (inactive) | 1.86 µM (inactive) | 1.63 µM (inactive) | 14.9 µM (inactive) | 1.79 µM (inactive) | 1.94 µM (inactive) | 1.58 µM (inactive) | 1.45 µM (inactive) | 2.78 µM (inactive) | 2.23 µM (inactive)
O=C1/C(=N/c2ccc(Nc3ccccc3)cc2)Oc2ccccc21 | 3.31 µM (inactive) | 3.18 µM (inactive) | 3.27 µM (inactive) | 1.82 µM (inactive) | 3.35 µM (inactive) | 2.02 µM (inactive) | 1.83 µM (inactive) | 1.69 µM (inactive) | 3.84 µM (inactive) | 5.57 µM (inactive) | 3.3 µM (inactive) | 2.74 µM (inactive) | 2.51 µM (inactive) | 2.36 µM (inactive) | 3.28 µM (inactive) | 4.19 µM (inactive) | 2.04 µM (inactive) | 2.35 µM (inactive) | 8.26 µM (inactive) | 2.2 µM (inactive)
COc1ccccc1/C=C1/Sc2scc(CC(=O)Nc3ccccc3)[n+]2C1=O | 20.3 µM (inactive) | 28.9 µM (inactive) | 36.3 µM (inactive) | 28.4 µM (inactive) | 32.9 µM (inactive) | 31.3 µM (inactive) | 20.3 µM (inactive) | 33 µM (inactive) | 25.2 µM (inactive) | 34 µM (inactive) | 19.1 µM (inactive) | 20.2 µM (inactive) | 22.6 µM (inactive) | 29.1 µM (inactive) | 14.4 µM (inactive) | 22.4 µM (inactive) | 28.6 µM (inactive) | 17.9 µM (inactive) | 30.8 µM (inactive) | 42 µM (inactive)
